Experiments:
c-kit = molecular target: T1, c-kit (Homo sapiens, UniProt P10721); assay: Inhibitory activity against c-kit autophosphorylation (MO7e cells, h-SCF); format: cell-based; conditions: for IC50: MO7e cells, h-SCF 50 ng/ml, read-out: c-kit IC50
T1 construct: MO7e (human megakaryocytic leukemia cell line) which had been arrested for 20 hr; endogenous in cells; host or cells: MO7e human megakaryocytic leukemia cell line
In short: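 MO7e cells, arrested for 20 hr, were pretreated with test compound in DMSO for 1 hr and then stimulated with 50 ng/ml h-SCF for 5 min before lysis. Lysates were captured on immobilized anti-phosphotyrosine PY-20, probed with anti-c-kit antibody and HRP anti-rabbit IgG, and read colorimetrically at 450 nm.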

PDGF-Ra = molecular target: T2, PDGF-Ra (Homo sapiens, UniProt P16234); assay: Inhibitory activity against PDGF-Ra phosphorylation by PDGF-AA stimulation using G292; format: cell-based; conditions: Pharmacological Test Example 1; > means inhibition at indicated concentration not more than 50%, < and << not less than 50%; read-out: PDGF (E) IC50
T2 construct: host or cells: G-292 human osteosarcoma cells
T2 sequence (P16234 24-1089): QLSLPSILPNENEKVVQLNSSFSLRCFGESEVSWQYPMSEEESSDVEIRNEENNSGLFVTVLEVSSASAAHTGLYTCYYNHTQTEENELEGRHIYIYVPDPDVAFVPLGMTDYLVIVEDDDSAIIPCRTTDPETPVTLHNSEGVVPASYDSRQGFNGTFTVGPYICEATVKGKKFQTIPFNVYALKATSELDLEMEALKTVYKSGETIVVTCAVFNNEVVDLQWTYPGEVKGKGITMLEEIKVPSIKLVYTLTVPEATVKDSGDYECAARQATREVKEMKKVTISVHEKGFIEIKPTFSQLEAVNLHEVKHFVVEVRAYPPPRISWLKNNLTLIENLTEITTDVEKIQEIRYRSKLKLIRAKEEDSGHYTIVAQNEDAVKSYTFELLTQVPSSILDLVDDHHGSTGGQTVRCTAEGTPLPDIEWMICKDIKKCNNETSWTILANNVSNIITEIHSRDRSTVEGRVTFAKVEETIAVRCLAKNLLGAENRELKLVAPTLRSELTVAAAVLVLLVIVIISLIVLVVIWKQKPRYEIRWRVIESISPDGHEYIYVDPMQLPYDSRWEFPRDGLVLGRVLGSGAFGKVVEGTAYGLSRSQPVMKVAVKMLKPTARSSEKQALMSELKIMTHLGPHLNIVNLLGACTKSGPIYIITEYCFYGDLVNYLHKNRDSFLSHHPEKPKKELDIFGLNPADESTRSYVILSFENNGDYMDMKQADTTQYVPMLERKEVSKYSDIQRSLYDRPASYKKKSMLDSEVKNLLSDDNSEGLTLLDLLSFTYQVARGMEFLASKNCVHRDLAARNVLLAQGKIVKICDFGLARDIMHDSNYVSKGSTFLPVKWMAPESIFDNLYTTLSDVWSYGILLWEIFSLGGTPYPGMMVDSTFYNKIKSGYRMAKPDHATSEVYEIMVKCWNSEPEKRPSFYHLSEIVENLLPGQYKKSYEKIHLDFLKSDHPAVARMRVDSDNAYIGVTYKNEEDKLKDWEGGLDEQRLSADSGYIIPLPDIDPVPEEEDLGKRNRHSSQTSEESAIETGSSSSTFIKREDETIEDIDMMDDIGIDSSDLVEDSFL
In short: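 Human osteosarcoma G-292, 0.1% FBS o/n; cpd (DMSO) 1 h 37 °C; PDGF-AA 50 ng/ml 5 min; lyse 20 min RT; PY-20 capture 4 °C o/n; anti-PDGF-Ra + HRP-GAR; OD450.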

T1 sequence (P10721 26-976): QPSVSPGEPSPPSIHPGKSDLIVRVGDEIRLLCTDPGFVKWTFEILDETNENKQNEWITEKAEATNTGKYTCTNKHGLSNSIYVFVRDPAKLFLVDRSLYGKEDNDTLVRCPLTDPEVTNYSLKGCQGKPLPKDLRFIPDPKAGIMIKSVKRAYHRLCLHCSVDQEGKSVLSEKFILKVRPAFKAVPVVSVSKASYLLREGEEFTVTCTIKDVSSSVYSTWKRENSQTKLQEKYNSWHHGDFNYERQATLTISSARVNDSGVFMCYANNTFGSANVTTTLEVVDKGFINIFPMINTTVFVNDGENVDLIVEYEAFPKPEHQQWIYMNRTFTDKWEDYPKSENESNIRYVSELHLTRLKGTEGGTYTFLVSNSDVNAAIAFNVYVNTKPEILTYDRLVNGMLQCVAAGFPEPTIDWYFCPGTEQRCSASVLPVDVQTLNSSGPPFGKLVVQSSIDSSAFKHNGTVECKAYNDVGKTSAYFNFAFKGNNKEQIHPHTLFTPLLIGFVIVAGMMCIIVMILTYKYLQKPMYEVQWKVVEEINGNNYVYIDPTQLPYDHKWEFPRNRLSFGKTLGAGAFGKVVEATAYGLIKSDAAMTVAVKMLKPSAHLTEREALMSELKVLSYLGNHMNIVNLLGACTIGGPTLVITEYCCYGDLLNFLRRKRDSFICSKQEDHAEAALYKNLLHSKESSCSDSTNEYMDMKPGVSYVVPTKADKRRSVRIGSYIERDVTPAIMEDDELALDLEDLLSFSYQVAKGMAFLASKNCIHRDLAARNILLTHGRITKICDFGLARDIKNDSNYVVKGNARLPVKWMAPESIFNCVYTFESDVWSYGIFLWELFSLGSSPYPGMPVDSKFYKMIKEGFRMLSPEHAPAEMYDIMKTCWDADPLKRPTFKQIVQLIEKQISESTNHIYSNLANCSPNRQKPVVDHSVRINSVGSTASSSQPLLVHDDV

| Structure (SMILES) | inhibition at 1 µM (c-kit; Mo7e, figure in parentheses in −( ), at 1000 nM) [%] | IC50 (PDGF-Ra) [nM] | IC50 (c-kit) [nM] |
| --- | --- | --- | --- |
| COc1cc2ncnc(Oc3ccc(NC(=O)OCCSc4ccc(C)cc4)c(Cl)c3)c2cc1OC [Example 141, 3-[(4-Methylphenyl)sulfanyl]ethyl N-{2-chloro-4-[(6,7-dimethoxy-4-quinazolinyl)oxy]phenyl}carbamate] | 26 | 36 | – |
| COc1cc2nccc(Oc3ccc(NC(=O)OCCCOc4ccccc4F)cc3)c2cc1OC [Example 142, 3-(2-Fluorophenoxy)propyl N-{4-[(6,7-dimethoxy-4-quinolyl)oxy]phenyl}carbamate] | – | < 10 | < 30 |
| COc1cc2nccc(Oc3ccc(NC(=O)OCCCOc4ccccc4F)c(C)c3C)c2cc1OC [Example 143, 3-(2-Fluorophenoxy)propyl N-{4-[(6,7-dimethoxy-4-quinolyl)oxy]-2,3-dimethylphenyl}carbamate] | – | < 10 | < 30 |
| COc1cc2nccc(Oc3cc(C)c(NC(=O)OCCCOc4ccccc4F)cc3C)c2cc1OC [Example 144, 3-(2-Fluorophenoxy)propyl N-{4-[(6,7-dimethoxy-4-quinolyl)oxy]-2,5-dimethylphenyl}carbamate] | – | 18 | 49 |
| COc1cc2ncnc(Oc3ccc(NC(=O)OCCCOc4ccccc4F)cc3)c2cc1OC [Example 145, 3-(2-Fluorophenoxy) propyl N-{4-[(6,7-dimethoxy-4-quinazolinyl)oxy]phenyl}carbamate] | – | < 10 | < 30 |
| COc1cc2ncnc(Oc3ccc(NC(=O)OCCCOc4ccccc4F)c(C)c3C)c2cc1OC [Example 146, 3-(2-Fluorophenoxy)propyl N-{4-[(6,7-dimethoxy-4-quinazolinyl)oxy]-2,3-dimethylphenyl}carbamate] | – | 11 | 32 |
| COc1cc2nccc(Oc3ccc(NC(=O)OCCCOc4cccc(F)c4)cc3)c2cc1OC [Example 147, 3-(3-Fluorophenoxy)propyl N-{4-[(6,7-dimethoxy-4-quinolyl)oxy]phenyl}carbamate] | – | 11 | < 30 |
| COc1cc2nccc(Oc3ccc(NC(=O)OCCCOc4cccc(F)c4)c(C)c3C)c2cc1OC [Example 148, 3-(3-Fluorophenoxy)propyl N-{4-[(6,7-dimethoxy-4-quinolyl)oxy]-2,3-dimethylphenyl}carbamate] | – | < 10 | < 30 |
| COc1cc2nccc(Oc3cc(C)c(NC(=O)OCCCOc4cccc(F)c4)cc3C)c2cc1OC [Example 149, 3-(3-Fluorophenoxy)propyl N-{4-[(6,7-dimethoxy-4-quinolyl)oxy]-2,5-dimethylphenyl}carbamate] | – | 19 | 49 |

Results, then the compound that gave them:

| inhibition at 1 µM (c-kit; Mo7e, figure in parentheses in −( ), at 1000 nM) [%] | IC50 (PDGF-Ra) [nM] | IC50 (c-kit) [nM] | Structure (SMILES) |
| --- | --- | --- | --- |
| – | < 10 | 38 | COc1cc2ncnc(Oc3ccc(NC(=O)OCCCOc4cccc(F)c4)cc3)c2cc1OC [Example 150, 3-(3-Fluorophenoxy)propyl N-{4-[(6,7-dimethoxy-4-quinazolinyl)oxy]phenyl}carbamate] |
| – | 12 | 32 | COc1cc2ncnc(Oc3ccc(NC(=O)OCCCOc4cccc(F)c4)c(C)c3C)c2cc1OC [Example 151, 3-(3-Fluorophenoxy)propyl N-{4-[(6,7-dimethoxy-4-quinazolinyl)oxy]-2,3-dimethylphenyl}carbamate] |
| – | < 10 | < 30 | COc1cc2nccc(Oc3ccc(NC(=O)OCCCOc4ccc(F)cc4)cc3)c2cc1OC [Example 152, 3-(4-Fluorophenoxy)propyl N-{4-[(6,7-dimethoxy-4-quinolyl)oxy]phenyl}carbamate] |
| – | < 10 | < 30 | COc1cc2nccc(Oc3ccc(NC(=O)OCCCOc4ccc(F)cc4)c(C)c3C)c2cc1OC [Example 153, 3-(4-Fluorophenoxy)propyl N-{4-[(6,7-dimethoxy-4-quinolyl)oxy]-2,3-dimethylphenyl}carbamate] |
| – | 40 | 61 | COc1cc2nccc(Oc3cc(C)c(NC(=O)OCCCOc4ccc(F)cc4)cc3C)c2cc1OC [Example 154, 3-(4-Fluorophenoxy)propyl N-{4-[(6,7-dimethoxy-4-quinolyl)oxy]-2,5-dimethylphenyl}carbamate] |
